How the values were obtained:
HCV NS5B = target: T1, HCV NS5B (Hepatitis C virus genotype 1b, UniProt Q9WMX2); assay: HCV NS5B RdRp enzyme assay (standard / modified); assay type: biochemical; conditions: HCV RdRp genotype 1b enzyme; read-out: IC50
T1 construct: The protein was expressed with an 18 amino acid C-terminal truncation to enhance the solubility; made in house; host or cells: E. coli BL21 (DE3)
Summary of the method: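 SPA detection of 3H-UTP (0.29 μM) incorporation by C-terminally truncated (18 aa) genotype 1b NS5B from E. coli, on polyA/biotin-oligo-dT12 at 30° C, pH 7.5 Hepes, 2% DMSO. Modified format: 14 nM enzyme, 0.2 nM template, 20 nM primer prebound to beads, 4 h; standard: 28 nM, 6 nM, 180 nM free primer, 60 min. Seven-point IC50 fit.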

HCV replicon cells = assay: HCV replicon FRET / luciferase assay; assay type: cell-based; conditions: Hepatitis C virus; HCV replicon cells, FRET or luciferase readout; read-out: EC50
Summary of the method: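 Percent activity is background-subtracted signal relative to untreated cell wells, with background taken from maximal protease-inhibitor wells. Cytotoxicity is Alamar blue fluorescence relative to controls. Replicon inhibition was read by NS3 FRET peptide cleavage (340/490 nm) or luciferase.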

T1 sequence (Q9WMX2 2420-2992): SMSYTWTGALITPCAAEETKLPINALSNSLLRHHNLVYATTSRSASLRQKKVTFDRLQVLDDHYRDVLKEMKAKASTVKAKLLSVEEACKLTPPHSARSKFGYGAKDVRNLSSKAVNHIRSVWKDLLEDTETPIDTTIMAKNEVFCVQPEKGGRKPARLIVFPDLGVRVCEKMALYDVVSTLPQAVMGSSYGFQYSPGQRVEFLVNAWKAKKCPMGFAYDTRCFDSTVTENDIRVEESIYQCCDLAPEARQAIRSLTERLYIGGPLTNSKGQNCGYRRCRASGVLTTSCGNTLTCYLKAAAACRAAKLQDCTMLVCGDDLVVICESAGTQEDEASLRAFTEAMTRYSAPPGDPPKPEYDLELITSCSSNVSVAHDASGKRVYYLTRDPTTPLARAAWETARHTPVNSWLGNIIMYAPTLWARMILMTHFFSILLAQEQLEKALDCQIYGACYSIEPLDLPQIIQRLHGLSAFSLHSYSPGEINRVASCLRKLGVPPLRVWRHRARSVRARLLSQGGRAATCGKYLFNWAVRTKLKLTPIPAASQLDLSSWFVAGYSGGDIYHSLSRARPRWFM

| Compound | IC50 (HCV NS5B) [nM] | EC50 (HCV replicon cells) [nM] |
| --- | --- | --- |
| COc1ccc2c(c1)C=C(c1c(C(=O)N3CCOCC3)cnn1C)Cn1c-2c(C2CCCCC2)c2ccc(C(=O)NS(=O)(=O)N(C)C)cc21 | 1 to 500 | 1 to 500 |
| COc1ccc2c(c1)C=C(c1c(C(=O)N3CCOCC3)cnn1C)Cn1c-2c(C2CCCCC2)c2ccc(C(=O)O)cc21 | 1 to 500 | 1 to 500 |
| COc1ccc2c(c1)C=C(c1ocnc1C(=O)N1CCOCC1)Cn1c-2c(C2CCCCC2)c2ccc(C(=O)NS(=O)(=O)C(C)C)cc21 | 1 to 500 | 1 to 500 |
| CCn1ncc(C(=O)N2CCN(C)CC2)c1C1=Cc2cc(OC)ccc2-c2c(C3CCCCC3)c3ccc(C(=O)NS(=O)(=O)N4CCCC4)cc3n2C1 | 1 to 500 | 1 to 500 |
| CCn1ncc(C(=O)N2CCN(C)CC2)c1C1=Cc2cc(OC)ccc2-c2c(C3CCCCC3)c3ccc(C(=O)NS(=O)(=O)N(C)C)cc3n2C1 | 1 to 500 | 1 to 500 |
| CCn1ncc(C(=O)N2CCOCC2)c1C1=Cc2cc(OC)ccc2-c2c(C3CCCCC3)c3ccc(C(=O)NS(=O)(=O)N4CCCC4)cc3n2C1 | 1 to 500 | 1 to 500 |
| CCn1ncc(C(=O)N2CCOCC2)c1C1=Cc2cc(OC)ccc2-c2c(C3CCCCC3)c3ccc(C(=O)NS(=O)(=O)C(C)C)cc3n2C1 | 1 to 500 | 1 to 500 |
| CCn1ncc(C(=O)N2CCOCC2)c1C1=Cc2cc(OC)ccc2-c2c(C3CCCCC3)c3ccc(C(=O)NS(=O)(=O)N(C)C)cc3n2C1 | 1 to 500 | 1 to 500 |
| CCn1ncc(C(=O)N2CCOCC2)c1C1=Cc2cc(OC)ccc2-c2c(C3CCCCC3)c3ccc(C(=O)N4CCOCC4)cc3n2C1 | > 500 | 1 to 500 |
| COc1ccc2c(c1)C=C(c1ocnc1C(=O)N1CCOCC1)Cn1c-2c(C2CCCCC2)c2ccc(C(=O)NS(=O)(=O)N3CCOCC3)cc21 | 1 to 500 | 1 to 500 |
| COc1ccc2c(c1)C=C(c1ocnc1C(=O)N1CCOCC1)Cn1c-2c(C2CCCCC2)c2ccc(C(=O)NS(=O)(=O)C3CC3)cc21 | 1 to 500 | 1 to 500 |
| CCOC(=O)c1cnn(C)c1C1=Cc2cc(OC)ccc2-c2c(C3CCCCC3)c3ccc(C(=O)OC(C)(C)C)cc3n2C1 | > 40 | 1 to 500 |
| CCOC(=O)c1cnn(C)c1C1=Cc2cc(OC)ccc2-c2c(C3CCCCC3)c3ccc(C(=O)O)cc3n2C1 | 1 to 500 | 1 to 500 |
| CCOC(=O)c1cnn(C)c1C1=Cc2cc(OC)ccc2-c2c(C3CCCCC3)c3ccc(C(=O)NS(=O)(=O)C(C)C)cc3n2C1 | 1 to 500 | 1 to 500 |
| COc1ccc2c(c1)C=C(c1c(C(=O)N(C)C3CCN(C)C3)cnn1C)Cn1c-2c(C2CCCCC2)c2ccc(C(=O)NS(=O)(=O)N3CCOCC3)cc21 (stereo not drawn) | 1 to 500 | 1 to 500 |
| COc1ccc2c(c1)C=C(c1c(C(=O)N3CCCN(C)CC3)cnn1C)Cn1c-2c(C2CCCCC2)c2ccc(C(=O)NS(=O)(=O)N3CCOCC3)cc21 | < 20 | 1 to 500 |
| COc1ccc2c(c1)C=C(c1c(C(=O)N3CCC(N(C)C)C3)cnn1C)Cn1c-2c(C2CCCCC2)c2ccc(C(=O)NS(=O)(=O)N3CCOCC3)cc21 (stereo not drawn) | 1 to 500 | 1 to 500 |
| COc1ccc2c(c1)C=C(c1c(C(=O)N3CCOCC3)cnn1C)Cn1c-2c(C2CCCCC2)c2ccc(C(=O)NS(=O)(=O)N3CCOCC3)cc21 | < 20 | 1 to 500 |
| COc1ccc2c(c1)C=C(c1c(C(=O)N3CCOC(CN(C)C)C3)cnn1C)Cn1c-2c(C2CCCCC2)c2ccc(C(=O)NS(=O)(=O)N3CCOCC3)cc21 (stereo not drawn) | 1 to 500 | 1 to 500 |
| COc1ccc2c(c1)C=C(c1c(C(=O)N3C[C@@H](C)O[C@@H](C)C3)cnn1C)Cn1c-2c(C2CCCCC2)c2ccc(C(=O)NS(=O)(=O)N3CCOCC3)cc21 | 1 to 500 | 1 to 500 |
| COc1ccc2c(c1)C=C(c1occc1C(=O)N1CCOCC1)Cn1c-2c(C2CCCCC2)c2ccc(C(=O)NS(=O)(=O)C(C)C)cc21 | 1 to 500 | 1 to 500 |
| COc1ccc2c(c1)C=C(c1c(C(=O)N3C[C@@H](C)O[C@@H](C)C3)cnn1CC(C)C)Cn1c-2c(C2CCCCC2)c2ccc(C(=O)NS(=O)(=O)C(C)C)cc21 | 1 to 500 | 1 to 500 |
| COc1ccc2c(c1)C=C(c1c(C(=O)N3C[C@@H](C)O[C@@H](C)C3)cnn1C(C)(C)C)Cn1c-2c(C2CCCCC2)c2ccc(C(=O)NS(=O)(=O)C(C)C)cc21 | 1 to 500 | 1 to 500 |
| COc1ccc2c(c1)C=C(c1c(C(=O)N3C[C@@H](C)N(C)[C@@H](C)C3)cnn1C(C)(C)C)Cn1c-2c(C2CCCCC2)c2ccc(C(=O)NS(=O)(=O)C(C)C)cc21 | 1 to 500 | 1 to 500 |

| Compound | IC50 (HCV NS5B) [nM] | EC50 (HCV replicon cells) [nM] |
| --- | --- | --- |
| COc1ccc2c(c1)C=C(c1c(C(=O)N3CC4CCC(C3)O4)cnn1C)Cn1c-2c(C2CCCCC2)c2ccc(C(=O)NS(=O)(=O)C(C)C)cc21 | < 20 | 1 to 500 |
| COc1ccc2c(c1)C=C(c1c(C(=O)N3CC4CCC(C3)O4)c(C(F)(F)F)nn1C)Cn1c-2c(C2CCCCC2)c2ccc(C(=O)NS(=O)(=O)C(C)C)cc21 | 1 to 500 | 1 to 500 |
| COC[C@@H]1CN(C(=O)c2c(C(F)(F)F)nn(C)c2C2=Cc3cc(OC)ccc3-c3c(C4CCCCC4)c4ccc(C(=O)NS(=O)(=O)C(C)C)cc4n3C2)CCO1 | 1 to 500 | 1 to 500 |
| COc1ccc2c(c1)C=C(c1c(C(=O)N3CCN(C)CC3)c(C(F)(F)F)nn1C)Cn1c-2c(C2CCCCC2)c2ccc(C(=O)NS(=O)(=O)C(C)C)cc21 | 1 to 500 | 1 to 500 |
| CCN1C[C@@H]2C[C@H]1CN2C(=O)c1c(C(F)(F)F)nn(C)c1C1=Cc2cc(OC)ccc2-c2c(C3CCCCC3)c3ccc(C(=O)NS(=O)(=O)C(C)C)cc3n2C1 | 1 to 500 | 1 to 500 |
| COc1ccc2c(c1)C=C(c1c(C(=O)N3CCOCC3)c(C)nn1C(C)C)Cn1c-2c(C2CCCCC2)c2ccc(C(=O)NS(=O)(=O)C(C)C)cc21 | 1 to 500 | 1 to 500 |
| COc1ccc2c(c1)C=C(c1c(C(=O)N3C[C@@H](C)O[C@@H](C)C3)c(C)nn1C(C)C)Cn1c-2c(C2CCCCC2)c2ccc(C(=O)NS(=O)(=O)C(C)C)cc21 | 1 to 500 | 1 to 500 |
| COc1ccc2c(c1)C=C(c1c(C(=O)N3CCN(C)CC3)c(C)nn1C(C)C)Cn1c-2c(C2CCCCC2)c2ccc(C(=O)NS(=O)(=O)C(C)C)cc21 | 1 to 500 | 1 to 500 |
| COc1ccc2c(c1)C=C(c1c(C(=O)N3C[C@@H](C)N(C)[C@@H](C)C3)c(C)nn1C(C)C)Cn1c-2c(C2CCCCC2)c2ccc(C(=O)NS(=O)(=O)C(C)C)cc21 | 1 to 500 | 1 to 500 |
| CCn1nc(C)c(C(=O)OC)c1C1=Cc2cc(OC)ccc2-c2c(C3CCCCC3)c3ccc(C(=O)O)cc3n2C1 | > 500 | > 500 |
| CCn1nc(C)c(C(=O)N2CC3CCC(C2)O3)c1C1=Cc2cc(OC)ccc2-c2c(C3CCCCC3)c3ccc(C(=O)NS(=O)(=O)C(C)C)cc3n2C1 | 1 to 500 | 1 to 500 |
| COc1ccc2c(c1)C=C(c1c(C(=O)N3CC4CCC(C3)O4)c(C)nn1C)Cn1c-2c(C2CCCCC2)c2ccc(C(=O)NS(=O)(=O)C(C)C)cc21 | 1 to 500 | 1 to 500 |
| COc1ccc2c(c1)C=C(c1c(C(=O)N3C[C@@H](C)N(C)[C@@H](C)C3)c(C)nn1C)Cn1c-2c(C2CCCCC2)c2ccc(C(=O)NS(=O)(=O)C(C)C)cc21 | 1 to 500 | 1 to 500 |
| CCn1nc(C)c(C2=Cc3cc(OC)ccc3-c3c(C4CCCCC4)c4ccc(C(=O)NS(=O)(=O)C(C)C)cc4n3C2)c1C(=O)N1C[C@@H](C)O[C@@H](C)C1 | 1 to 500 | 1 to 500 |
| CCn1ncc(C(=O)N2CCO[C@@H](COC)C2)c1C1=Cc2cc(OC)ccc2-c2c(C3CCCCC3)c3ccc(C(=O)NS(=O)(=O)C(C)C)cc3n2C1 | 1 to 500 | 1 to 500 |
| CCn1ncc(C(=O)N2C[C@@H]3C[C@H]2CO3)c1C1=Cc2cc(OC)ccc2-c2c(C3CCCCC3)c3ccc(C(=O)NS(=O)(=O)C(C)C)cc3n2C1 | 1 to 500 | 1 to 500 |
| CCN1C[C@@H]2C[C@H]1CN2C(=O)c1cnn(CC)c1C1=Cc2cc(OC)ccc2-c2c(C3CCCCC3)c3ccc(C(=O)NS(=O)(=O)C(C)C)cc3n2C1 | 1 to 500 | 1 to 500 |
| COc1ccc2c(c1)C=C(c1c(C(=O)N3C[C@@H]4C[C@H]3CO4)cnn1CC(F)(F)F)Cn1c-2c(C2CCCCC2)c2ccc(C(=O)NS(=O)(=O)C(C)C)cc21 | 1 to 500 | 1 to 500 |
| COc1ccc2c(c1)C=C(c1c(C(=O)N3CC4CCC(C3)O4)cnn1C(C)C)Cn1c-2c(C2CCCCC2)c2ccc(C(=O)NS(=O)(=O)C(C)C)cc21 | 1 to 500 | 1 to 500 |
| COc1ccc2c(c1)C=C(c1c(C(=O)N3C[C@@H]4C[C@H]3CO4)cnn1C(C)C)Cn1c-2c(C2CCCCC2)c2ccc(C(=O)NS(=O)(=O)C(C)C)cc21 | 1 to 500 | 1 to 500 |
| COc1ccc2c(c1)C=C(c1c(C(=O)N3C[C@@H]4C[C@H]3CO4)c(C)nn1C(C)C)Cn1c-2c(C2CCCCC2)c2ccc(C(=O)NS(=O)(=O)C(C)C)cc21 | 1 to 500 | 1 to 500 |
| CCN1C[C@@H]2C[C@H]1CN2C(=O)c1c(C)nn(C(C)C)c1C1=Cc2cc(OC)ccc2-c2c(C3CCCCC3)c3ccc(C(=O)NS(=O)(=O)C(C)C)cc3n2C1 | 1 to 500 | 1 to 500 |
| CCn1nc(C)c(C(=O)N2C[C@@H]3C[C@H]2CO3)c1C1=Cc2cc(OC)ccc2-c2c(C3CCCCC3)c3ccc(C(=O)NS(=O)(=O)C(C)C)cc3n2C1 | 1 to 500 | 1 to 500 |
| CCN1C[C@@H]2C[C@H]1CN2C(=O)c1c(C)nn(CC)c1C1=Cc2cc(OC)ccc2-c2c(C3CCCCC3)c3ccc(C(=O)NS(=O)(=O)C(C)C)cc3n2C1 | 1 to 500 | 1 to 500 |

Source: patent US8143243B2, “Compounds for the treatment of hepatitis C” (Bristol-Myers Squibb Company, priority 2007, dated 2012)
